# From ChEMBL document CHEMBL4390668, “Discovery and Structural Optimization of Acridones as Broad-Spectrum Antimalarials” (J Med Chem, 2019)
# The source made the active and inactive calls. No cut-off for these calls is given here.
# What was measured:
# Plasmodium falciparum [1] = assay: Antimalarial activity against drug-resistant Plasmodium falciparum Dd2 harboring V259L mutant infected in human erythrocytes after 72 hrs by SYBR green 1-based fluorescence assay; format: functional, organism-based; conditions: Dd2, 72 h
# Plasmodium falciparum [2] = assay: Antimalarial activity against drug-resistant Plasmodium falciparum Dd2 harboring M133I/A138T double mutant infected in human erythrocytes after 72 hrs by SYBR green 1-based fluorescence assay; format: functional, organism-based; conditions: Dd2, 72 h
# Plasmodium falciparum [3] = assay: Inhibition of Plasmodium falciparum cytochrome b-c1
# Plasmodium falciparum [4] = assay: Antimalarial activity against drug-resistant Plasmodium falciparum Dd2 harboring M133I mutant infected in human erythrocytes after 72 hrs by SYBR green 1-based fluorescence assay; format: functional, organism-based; conditions: Dd2, 72 h
# Plasmodium falciparum [5] = assay: Antimalarial activity against multidrug-resistant Plasmodium falciparum Dd2 infected in human erythrocytes by SYBR green 1-based fluorescence assay; format: functional, organism-based
# Plasmodium falciparum [6] = assay: Antimalarial activity against Plasmodium falciparum 3D7 infected in human erythrocytes after 72 hrs by SYBR green 1-based fluorescence assay; format: functional, organism-based; conditions: 3D7, 72 h
# Plasmodium falciparum [7] = assay: Antimalarial activity against drug-resistant Plasmodium falciparum 3D7 harboring A82T/V259L double mutant infected in human erythrocytes after 72 hrs by SYBR green 1-based fluorescence assay; format: functional, organism-based; conditions: 3D7, 72 h
# [8] = Mutagenicity in Salmonella typhimurium TA98 assessed as increase in revertant colonies up to 10 uM in absence of S9 fraction by Ames test; format: toxicity; conditions: salmonella enterica subsp. enterica serovar typhimurium
# Plasmodium yoelii = assay: Antimalarial activity against blood stage Plasmodium yoelii MR4 MRA-428 infected in CF1 mouse assessed as suppression of parasitemia administered once daily via oral gavage for 4 days starting from 24 hrs post-infection and measured post-last dose by Giemsa-staining based microscopic analysis; format: functional
# Plasmodium falciparum [9] = assay: Antimalarial activity against atovaquone-resistant Plasmodium falciparum Tm90-C2B infected in human erythrocytes by SYBR green 1-based fluorescence assay; format: functional, organism-based
# hERG (KCNH2) = hERG (KCNH2) (Homo sapiens, UniProt Q12809); assay: Inhibition of human ERG expressed in CHOK1 cells at 10 uM by automated patch clamp method relative to control; format: cell-based; conditions: CHO-K1 cells that express hERG
# Sequence of hERG (KCNH2) (Q12809 whole entry): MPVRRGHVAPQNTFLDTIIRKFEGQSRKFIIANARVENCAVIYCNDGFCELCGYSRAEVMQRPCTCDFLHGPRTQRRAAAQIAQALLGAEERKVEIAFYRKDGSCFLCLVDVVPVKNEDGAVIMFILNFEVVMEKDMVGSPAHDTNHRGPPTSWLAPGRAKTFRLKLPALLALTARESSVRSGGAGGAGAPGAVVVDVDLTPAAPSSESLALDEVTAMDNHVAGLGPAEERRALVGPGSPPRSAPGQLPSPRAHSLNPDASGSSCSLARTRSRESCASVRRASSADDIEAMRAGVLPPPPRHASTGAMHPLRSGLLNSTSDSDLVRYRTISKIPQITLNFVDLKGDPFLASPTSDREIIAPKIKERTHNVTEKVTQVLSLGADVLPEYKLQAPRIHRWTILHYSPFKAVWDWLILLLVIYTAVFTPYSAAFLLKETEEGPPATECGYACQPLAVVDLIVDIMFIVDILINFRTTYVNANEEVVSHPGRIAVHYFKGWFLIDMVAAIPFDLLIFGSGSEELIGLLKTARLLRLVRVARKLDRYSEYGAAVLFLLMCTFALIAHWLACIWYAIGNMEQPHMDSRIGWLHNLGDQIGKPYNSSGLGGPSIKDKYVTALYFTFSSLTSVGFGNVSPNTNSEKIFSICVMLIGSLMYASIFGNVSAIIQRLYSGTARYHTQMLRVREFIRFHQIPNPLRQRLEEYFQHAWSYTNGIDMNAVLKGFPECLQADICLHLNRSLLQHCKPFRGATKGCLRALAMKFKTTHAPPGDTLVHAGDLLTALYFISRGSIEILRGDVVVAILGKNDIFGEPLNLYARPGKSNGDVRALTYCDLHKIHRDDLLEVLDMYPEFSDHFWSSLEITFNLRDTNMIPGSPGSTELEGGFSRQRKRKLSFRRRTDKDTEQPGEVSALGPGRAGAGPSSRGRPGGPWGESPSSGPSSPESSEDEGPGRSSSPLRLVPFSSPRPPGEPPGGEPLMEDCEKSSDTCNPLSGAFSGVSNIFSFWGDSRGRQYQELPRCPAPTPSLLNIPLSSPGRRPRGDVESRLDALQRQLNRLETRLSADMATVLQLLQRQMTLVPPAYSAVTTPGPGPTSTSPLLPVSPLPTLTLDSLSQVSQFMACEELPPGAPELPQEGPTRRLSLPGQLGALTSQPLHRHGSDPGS
# [10] = Mutagenicity in Salmonella typhimurium TA100 assessed as increase in revertant colonies up to 10 uM in absence of S9 fraction by Ames test; format: toxicity; conditions: salmonella enterica subsp. enterica serovar typhimurium
# [11] = Half life in mouse liver microsomes at 1 uM by LC-MS analysis; format: ADME, Microsome
# Plasmodium berghei = assay: Antimalarial activity against luciferase-expressing Plasmodium berghei ANKA 676m1cl1 sporozoites infected in human HepG2A16 cells measured after 45 hrs by luciferase-luciferin based reporter assay; format: functional, organism-based; conditions: ANKA 676m1cl1, HepG2A16, 45 h
# [12] = Mutagenicity in Salmonella typhimurium TA98 assessed as increase in revertant colonies up to 10 uM in presence of S9 fraction by Ames test; format: toxicity, subcellular; conditions: salmonella enterica subsp. enterica serovar typhimurium
# [13] = Mutagenicity in Salmonella typhimurium TA100 assessed as increase in revertant colonies up to 10 uM in presence of S9 fraction by Ames test; format: toxicity, subcellular; conditions: salmonella enterica subsp. enterica serovar typhimurium
# [14] = Half life in human liver microsomes at 1 uM by LC-MS analysis; format: ADME, Microsome
# Plasmodium falciparum [15] = assay: Antimalarial activity against multidrug-resistant Plasmodium falciparum 7G8 infected in human erythrocytes by SYBR green 1-based fluorescence assay; format: functional, organism-based
# Plasmodium falciparum [16] = assay: Antimalarial activity against chloroquine-sensitive Plasmodium falciparum D6 infected in human erythrocytes by SYBR green 1-based fluorescence assay; format: functional, organism-based
# [17] = Selectivity index, ratio of IC50 for human HepG2 cells to IC50 for chloroquine-sensitive Plasmodium falciparum D6 infected in human erythrocytes; format: toxicity, cell-based; conditions: read-out: Ratio IC50
# HepG2 = assay: Cytotoxicity against human HepG2 cells measured after 24 to 36 hrs by resazurin dye based fluorescence assay; format: cell-based
SMILES,IC50 (Plasmodium falciparum [1]),IC50 (Plasmodium falciparum [2]),inhibition (Plasmodium falciparum [3]),IC50 (Plasmodium falciparum [4]),IC50 (Plasmodium falciparum [5]),IC50 (Plasmodium falciparum [6]),IC50 (Plasmodium falciparum [7]),Activity [8],ED50 (Plasmodium yoelii),ED90 (Plasmodium yoelii),IC50 (Plasmodium falciparum [9]),inhibition at 10 µM (hERG (KCNH2)),Activity [10],half-life at 1 µM [11],IC50 (Plasmodium berghei),Activity [12],IC50 (Plasmodium falciparum [15]),IC50 (Plasmodium falciparum [16]),selectivity ratio [17],IC50 (HepG2),also measured
C=C[C@H]1CN2CC[C@H]1C[C@H]2[C@H](O)c1ccnc2ccc(OC)cc12 [QUININE],215 nM,199 nM,inactive,197 nM,254 nM,,,,,,,,,,,,,,,,
O=C1C(O)=C([C@H]2CC[C@H](c3ccc(Cl)cc3)CC2)C(=O)c2ccccc21 [ATOVAQUONE],4.1 nM,,inactive,6.9 nM,,0.5 nM,1.9 nM,,,,,,,,,,,,,,
CCCN(CCC)CCOc1ccc2c(=O)c3c(Cl)cc(Cl)cc3[nH]c2c1,,,,,0.003 nM,,,Non-Toxic,0.21 mg/kg.day,3.54 mg/kg.day,153 nM,38%,Non-Toxic,> 60 min,3.7 nM,Non-Toxic,0.006 nM,,,,Activity [13]: Non-Toxic; half-life at 1 µM [14]: > 60 min
CCN(CC)CCOc1ccc2c(=O)c3c(F)cc(F)cc3[nH]c2c1,525 nM,60 nM,inactive,,16 to 20 nM,15 nM,1150 nM,,1.62 mg/kg.day,9.91 mg/kg.day,1980 nM,,,,,,12 nM,7.8 nM,9950,77600 nM,
CCCCN(CCCC)CC(O)c1cc(Cl)cc2c1-c1ccc(Cl)cc1/C2=C/c1ccc(Cl)cc1 (configuration not stated) [LUMEFANTRINE],6.5 nM,3.6 nM,inactive,3.6 nM,5.7 nM,3 nM,4.5 nM,,,,,,,,,,,,,,
CCCCCCOc1ccc2c(=O)c3c(F)cc(F)cc3[nH]c2c1,,,,,0.041 nM,,,Non-Toxic,1.09 mg/kg.day,12.7 mg/kg.day,5.4 nM,20%,Non-Toxic,,72 nM,Non-Toxic,0.05 nM,0.026 nM,> 100000,> 100000 nM,Activity [13]: Non-Toxic
CCN(CC)CCOc1ccc2[nH]c3cc(Cl)ccc3c(=O)c2c1,355 nM,340 nM,inactive,,132 to 366 nM,262 nM,284 nM,,,,97 nM,,,34 min,793 nM,,81 nM,110 nM,272,30000 nM,half-life at 1 µM [14]: > 60 min
O=c1c2ccc(OCCN(CCC(F)(F)F)CCC(F)(F)F)cc2[nH]c2cc(F)cc(F)c12,,,,,0.015 nM,,,Non-Toxic,0.66 mg/kg.day,2.53 mg/kg.day,2 nM,17%,Non-Toxic,33 min,0.09 nM,Non-Toxic,0.016 nM,0.002 nM,> 100000,> 100000 nM,Activity [13]: Non-Toxic; half-life at 1 µM [14]: 20 min
Clc1ccc2c(N3CCN(CCCN4CCN(c5ccnc6cc(Cl)ccc56)CC4)CC3)ccnc2c1 [PIPERAQUINE],7.1 nM,7.4 nM,inactive,10 nM,,7.2 nM,5 nM,,,,,,,,,,,,,,
CCN(CC)CCCC(C)Nc1c2ccc(Cl)cc2nc2ccc(OC)cc12 (configuration not stated) [QUINACRINE],18 nM,29 nM,inactive,23 nM,29 nM,,,,,,,,,,,,,,,,
CCN(CC)CCCOc1ccc2c(=O)c3c(Cl)cc(Cl)cc3[nH]c2c1,,,,,45 nM,,,Non-Toxic,0.43 mg/kg.day,24.1 mg/kg.day,228 nM,59%,Non-Toxic,16 min,138 nM,Non-Toxic,114 nM,19 nM,6840,130000 nM,Activity [13]: Non-Toxic; half-life at 1 µM [14]: 9 min
"O[C@@H](c1cc(C(F)(F)F)nc2c(C(F)(F)F)cccc12)[C@H]1CCCCN1 [(S,R)-MEFLOQUINE]",23 nM,13 nM,inactive,14 nM,18 nM,,,,,,,,,,,,,,,,
CCN(CC)CCOc1ccc2c(=O)c3c(Cl)cc(Cl)cc3[nH]c2c1,668 nM,1080 nM,inactive,,22 to 31 nM,16 nM,612 nM,,3.09 mg/kg.day,50.2 mg/kg.day,465 nM,,,,,,21 nM,8.2 nM,1630,13400 nM,
